For orientation: Ki means the dissociation constant of the complex between target and ligand, obtained from inhibition or displacement.

The target in experiment [1] is T1, xanthine oxidase (XO) (Bos taurus, UniProt P80457). Description: competition with oxidation of I, fluorimetric assay, pH […]. Type of experiment: biochemical. Further details: gene XDH; commercial XO from bovine milk (purified enzyme).
The target of experiment [2] is T1, xanthine oxidase (XO). Description: isothermal titration calorimetry (estimate only); also oxidation kinetics, apparent Km […] at pH […] and […] at pH […]. The experiment is classed as binding. Further details: gene XDH; commercial XO from bovine milk.
In experiment [3] the target is T2, purine nucleoside phosphorylase (WT PNP) (Escherichia coli, UniProt P0ABP8).
T2 construct: gene deoD; recombinant wild-type E. coli PNP, hexamer
T2 sequence (P0ABP8 2-239): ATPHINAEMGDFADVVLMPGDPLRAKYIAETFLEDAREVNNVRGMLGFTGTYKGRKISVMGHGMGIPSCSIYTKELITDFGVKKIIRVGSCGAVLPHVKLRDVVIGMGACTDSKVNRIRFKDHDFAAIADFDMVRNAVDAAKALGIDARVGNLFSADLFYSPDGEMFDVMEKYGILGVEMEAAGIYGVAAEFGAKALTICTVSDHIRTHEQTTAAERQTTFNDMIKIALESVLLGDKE
Description: crystal structure ([…] Å) and isothermal titration calorimetry. Type of experiment: binding.

Experiment [4] concerns the target T1, xanthine oxidase (XO). Description: isothermal titration calorimetry (estimate only); weak substrate in oxidation assay. Type of experiment: binding. Further details: gene XDH; commercial XO from bovine milk. An excerpt: isothermal titration calorimetry (estimate only); weak substrate in oxidation assay on xanthine oxidase (XO) | the endo- and exothermic processes were again observed.

T1 sequence (P80457 2-1332): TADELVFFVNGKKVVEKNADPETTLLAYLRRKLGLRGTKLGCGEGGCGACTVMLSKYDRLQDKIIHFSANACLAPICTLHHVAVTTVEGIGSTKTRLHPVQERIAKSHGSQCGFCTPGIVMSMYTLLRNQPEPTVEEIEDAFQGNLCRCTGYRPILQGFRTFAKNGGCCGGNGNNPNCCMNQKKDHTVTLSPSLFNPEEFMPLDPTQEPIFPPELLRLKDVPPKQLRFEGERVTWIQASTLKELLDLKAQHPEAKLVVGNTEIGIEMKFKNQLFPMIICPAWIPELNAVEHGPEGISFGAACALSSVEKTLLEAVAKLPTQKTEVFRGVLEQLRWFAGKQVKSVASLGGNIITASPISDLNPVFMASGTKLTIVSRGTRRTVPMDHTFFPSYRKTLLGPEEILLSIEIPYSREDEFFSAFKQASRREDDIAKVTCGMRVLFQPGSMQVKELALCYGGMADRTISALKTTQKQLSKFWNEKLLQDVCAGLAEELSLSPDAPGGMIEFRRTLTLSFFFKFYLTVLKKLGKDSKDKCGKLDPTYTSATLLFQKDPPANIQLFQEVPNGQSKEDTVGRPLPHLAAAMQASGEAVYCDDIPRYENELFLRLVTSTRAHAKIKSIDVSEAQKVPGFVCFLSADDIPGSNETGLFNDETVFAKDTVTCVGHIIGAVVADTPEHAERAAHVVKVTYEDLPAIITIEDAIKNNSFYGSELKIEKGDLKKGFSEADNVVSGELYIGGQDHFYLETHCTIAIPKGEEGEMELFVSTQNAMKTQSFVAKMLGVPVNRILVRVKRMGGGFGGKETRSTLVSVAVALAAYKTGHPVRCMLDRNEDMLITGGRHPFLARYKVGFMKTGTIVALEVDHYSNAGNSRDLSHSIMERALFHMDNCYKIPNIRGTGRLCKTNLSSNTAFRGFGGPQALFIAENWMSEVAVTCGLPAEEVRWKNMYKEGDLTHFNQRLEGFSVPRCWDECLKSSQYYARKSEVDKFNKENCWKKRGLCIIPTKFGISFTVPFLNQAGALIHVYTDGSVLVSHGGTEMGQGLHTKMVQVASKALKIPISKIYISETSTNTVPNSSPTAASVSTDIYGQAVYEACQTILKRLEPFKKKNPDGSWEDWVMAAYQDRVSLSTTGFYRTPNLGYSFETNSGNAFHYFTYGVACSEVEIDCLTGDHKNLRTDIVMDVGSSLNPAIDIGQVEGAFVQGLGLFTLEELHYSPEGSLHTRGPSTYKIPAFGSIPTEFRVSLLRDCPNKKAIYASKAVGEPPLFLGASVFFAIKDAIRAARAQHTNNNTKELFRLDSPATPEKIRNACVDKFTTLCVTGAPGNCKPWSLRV

On to `O=c1[nH]c(=O)c2[nH]cnc2[nH]1` [xanthine], for which the Ki at xanthine oxidase (XO) [1] stood at 3000 nM.

`c1cn2cc3nc[nH]c3nc2n1` [I, 1,N^2-ε2APu]: the Kd on xanthine oxidase (XO) [2] is around 2.2 nM.

`c1cn2c(n1)ncc1nc[nH]c12` [II, N^2,3-ε2APu]: the Kd in experiment [3] was 36200 nM; at xanthine oxidase (XO) [4] it was around 7.5 nM.

The values above are taken from article PMC11477426, “Interaction of Tri-Cyclic Nucleobase Analogs with Enzymes of Purine Metabolism: Xanthine Oxidase and Purine Nucleoside Phosphorylase” (International Journal of Molecular Sciences, 2024).
